We go through one molecule from US8962549B2, “Polymeric benzyl carbonate-derivatives” (Baxter International Inc., priority 2008, dated 2015).

A short description of this data set: Release of tryptophan from PEG-tryptophan: incubation in cleavage buffer at 37° C., HPLC analysis. The data set is classed as physicochemical. The settings on record: detection at 280 nm. The protocol:
A 0.10 mL aliquot of the PEGylated tryptophan reaction solution from Example 7 was diluted with 0.60 mL PBS buffer (0.10 M, NaCl, 0.10 M, Glycine 0.10M, pH 7.5) and incubated at 37° C. in an oven. Aliquots of 0.10 mL were withdrawn at incubation intervals of 2, 7, 32 and 102 hours, and were quenched with 10 μl of HCl (1.0 N diluted with 0.4 mL 20% acetonitrile containing 0.01% trifluoroacetic acid) for HPLC analysis (0.10 mL injection).
The above procedure was repeated using a cleavage solution with a pH of 8.5 and incubation intervals of 1, 6, 24, and 32 hours.
Both the PEG-tryptophan (Example 7) and cleavage samples were analyzed on C-18 reversed-phase HPLC with detection at 280 nm. The HPLC conditions are the following: C-18 column (Waters Symmetry, 4.6×250 mm), flow rate of 1.0 mL/min, gradient of acetonitrile 20% to 80% over 15 minutes followed by 10 minutes of washing at 80% acetonitrile (all contain 0.01% trifluoroacetic acid).

Take `N[C@@H](Cc1c[nH]c2ccccc12)C(=O)O` [Tryptophan]: the “contents (HPLC integration area) of cleavage reaction” value is, setting by setting: (pH 7.5 PBS with glycine 0.10 M, incubation time 2 hours) 596; (pH 7.5 PBS with glycine 0.10 M, incubation time 7 hours) 647; (pH 7.5 PBS with glycine 0.10 M, incubation time 32 hours) 1329; (pH 7.5 PBS with glycine 0.10 M, incubation time 102 hours) 2955; (pH 8.5 cleavage solution, incubation time 1 hour) 735; (pH 8.5 cleavage solution, incubation time 6 hours) 1183. The “contents (HPLC integration area) of cleavage reaction” value was 2442 (pH 8.5 cleavage solution, incubation time 24 hours) and 2498 (pH 8.5 cleavage solution, incubation time 32 hours).
